Source: patent publication US12414947B2, “Use of FGFR inhibitors for treatment of idiopathic short stature” (CEDARS-SINAI MEDICAL CENTER, priority 2019, dated 2025)

Experiments:
[1] = Case report: height growth of patient CC0419 during erdafitinib therapy; assay type: in vivo, human
Text: FIG. 1 depicts a child's growth chart.
(§1) […], they underwent a biopsy for a second recurrence.

[2] = in vivo
Text: as §1

[3] = test system: pERK1/2 and pAKT signaling in Patient normal fibroblast cells; conditions: IGF-I 100 ng/ml, IGF-2 100 ng/ml; erdafitinib 0-300 nM
Text: FIG. 4 depicts signaling effects. […] Test working hypothesis using Patient's normal fibroblast cells as the model system. Fibroblasts, grown in αMEM+15% FBS till ˜80% confluency, were serum-starve for 18 hr in αMEM+0.1% BSA.
In vitro assays, with read-outs: signaling (pERK, pAKT), proliferation/survival assays (WST-1).

[4] = test system: Patient normal fibroblasts; test: Immunoblot analysis for apoptosis markers (FIG. 5); assay type: cell-based, human
Text: FIG. 5 depicts the effects on apoptosis.

[5] = test system: Patient normal fibroblast cells; test: Cell Survival Assay (WST-1) (FIGS. 6, 7); assay type: cell-based, human
Description: Fibroblasts were seeded 5×10^4 cells/well (96 well format), grow in αMEM+15% for 24 hr. […] WST-1 reagent was added, 10 μl/well, 1 hr, spectrophotometry analysis. 3 wells per test sample. NC, normal control.
Assay set up as described in FIG. 6, except IGF-I (100 ng/ml), IGF2 (100 ng/ml) or FGF2 (40 ng/ml) added as indicated. Cell survival was assayed over 5 days.

[6] = Example 3: child with short stature given erdafitinib; assay type: in vivo, human; conditions: six-month period, from the 10%
Text: A child presents with short stature. […] Their height growth velocity increased resulting in a jump in height from the 10% up to the 50% for their age.

COc1cc(OC)cc(N(CCNC(C)C)c2ccc3ncc(-c4cnn(C)c4)nc3c2)c1 [Erdafitinib, erdafitinib]
total growth in height ([1]; 9-month therapy (7 mg then 5 mg orally daily) plus one month after cessation): 14.3 cm
total growth in height ([1]; 9-month therapy plus one month after cessation): 5.63 inches
height percentile ([1]; 10 months from initiation of treatment, from 15th percentile): 70 percentile
growth velocity ([1]; on therapy, from 3.653 cm/year before): 18.06 cm/year
growth velocity (percentile) ([1]; on therapy, from 40% before, wildtype germline FGFR): > 99%
height percentile ([1]; starting ~2 months into therapy, from ~15 percentile): 23 percentile
height percentile ([1]; within one month of initiating treatment, from 15th percentile, child): 48 percentile
Dexa bone scan interpretation [2]: consistent with osteoporosis
GH, random (rating) [2]: normal
IGF-1 Z-score [2]: −1.7
IGF-I SDS [2]: −1.4 SDS
IGF-II (rating) [2]: normal
IGFBP-3 (rating) [2]: normal
Metabolic panel: creatine (rating) [2]: below normal
RDW (red cell distribution width) [2]: 16.4%
Testosterone, free and total (rating) [2]: abnormally low
bone age [2]: ~14 year
bone age delay compared to CA (x-ray hand and wrist) [2]: ~2 yrs
bone age, standard deviation below the mean [2]: greater than 2 standard deviation
events that led to discontinuation [2]: scoliosis of the thoracic region, kyphosis of the upper cervical region, and hip flexion contractures
hyperphosphatemia [2]: Transient hyperphosphatemia
lumbar spine bone density, standard deviations below mean for age-matched population [2]: 3.8 standard deviations
mean bone density value for the lumbar spine (Dexa) [2]: 0.6322 gm/sq·cm
musculoskeletal problems [2]: rapid growth and kyphosis/scoliosis which required surgery
x-ray hand and wrist finding: osteochondrosis [2]: A suggestion of osteochondrosis
x-ray hand and wrist finding: periosteal reaction [2]: Periosteal reaction (distal radius, ulna, first metacarpal)
adverse events that led to dose reduction ([2]; po): musculoskeletal pain and high phosphorus levels
pERK1/2 in presence of ligands (IGF-1, IGF2) [3]: remains erdafitinib-suppressed
apoptotic markers, cleaved Caspase 3 and cleaved PARP ([4]; by 24 hrs, erdafitinib treated cells without IGF-I): detected
apoptotic markers when IGF-I was present ([4]; lysates 24 and 48 hr post-treatment, IGF-I 100 ng/ml): not detected (or significantly blunted)
cell survival (WST-1) ([5]; 0-300 nM, 1-5 days, serum-free media, 5×10^4 cells/well): dose-dependently decreased survival
survival of erdafitinib-treated cells with growth factors (WST-1) ([5]; IGF-I 100 ng/ml, IGF2 100 ng/ml or FGF2 40 ng/ml, over 5 days): IGF-I, but not FGF2, has significant protective effects
height percentile for age [6]: 50%
